Laboratory results published in patent US8217176B2, “Fused heterocyclic derivative and use thereof” (Takeda Pharmaceutical Company Limited, priority 2008, dated 2012).
Counter-ions that a name gives are not always drawn.

Tested on: NIH-3T3/Gli reporter cells
Experiment: Evaluation of compound: Shh-N-induced luciferase activity in NIH-3T3/Gli reporter cells (Smo inhibitory action)
Format: cell-based
Settings: 48 hr; for inhibition at 1 µM: NIH3T3, 1 μM compound, mouse Shh-N end fragment supernatant, read-out: inhibition rate (%) at 1 μM; for IC50: NIH3T3, mouse Shh-N end fragment supernatant, read-out: IC50 value (compound concentration necessary for achieving 50% of the maximum value of inhibition rate)
Experimental: HEK293 cells were grown in D-MEM medium (Invitrogen) containing 10% fetal bovine serum in a 10 cm dish and pcDNA3.1/mShh-N was introduced into the cells using FuGENE6 (Roche Applied Science). Thereafter, the HEK293 cells were cultured in a carbon dioxide gas incubator at 37° C. for 24 hours, and the medium was exchanged with D-MEM medium (Invitrogen) containing 2% fetal bovine serum. After culturing for 48 hr, a culture supernatant containing recombinant type mouse Shh-N end fragment was obtained by filtration using a filter ([…]).
Using D-MEM (Invitrogen) containing 10% fetal bovine serum, expression plasmid pcDNA3.1 and Gli reporter plasmid (pGL3/δ-cry promoter, 8×Gli binding site) produced by the method of Experimental Example 1 were introduced into NIH-3T3 cells grown in a 10 cm dish by the use of FuGENE6 (Roche Applied Science).
After culture for 24 hr, the cells were recovered, suspended in D-MEM medium containing 10% fetal bovine serum and supplemented with Geneticin (Life Technologies Oriental, Inc.) to a final concentration of 500 μg/ml, diluted to 10^4 cells/ml, plated on a 96 well plate, and cultured in a carbon dioxide gas incubator at 37° C. to give Geneticin resistant transformed cell line.
The obtained transformed cell line was cultured in a 96 well plate, mouse Shh-N end fragment obtained in Experimental Example 3 was added, and NIH-3T3/Gli reporter cell, which is a cell line capable of induction of luciferase expression, was selected.
NIH-3T3/Gli reporter cells cultured in D-MEM (Invitrogen) containing 10% fetal bovine serum were plated in a 96 well white plate at 1×10^4 cells/well, and cultured overnight in a carbon dioxide gas incubator at 37° C. The medium was removed, a compound (50 μl) and culture supernatant of mouse Shh-N end fragment-expressing HEK293 (D-MEM medium containing 2% fetal bovine serum, 50 μl) were added, and the cells were cultured for 48 hr in a carbon dioxide gas incubator at 37° C. Bright-Glo (Promega, 50 μl) was added, and the mixture was stirred, after which luciferase activity was measured by EnVision (PerkinElmer). The inhibition rate was calculated based on the luciferase activity of the control without addition of the compound as 100. The concentration of the compound and the inhibition rate were analyzed by PRISM3.00 (software of GraphPad), based on which the IC50 value (compound concentration necessary for achieving 50% of the maximum value of inhibition rate) of the compound was calculated.

Row | Structure (SMILES) | inhibition at 1 µM [%] | IC50 [nM]
1 | CCN(C(C)=O)C1CCN(C(=O)c2sc3c(c2OC)c(=O)n(CC(=O)c2ccccc2)c2ccccc32)C1 (stereo not shown) [Example 2, N-ethyl-N-(1-{[3-methoxy-4-oxo-5-(2-oxo-2-phenylethyl)-4,5-dihydrothieno[3,2-c]quinolin-2-yl]carbonyl}pyrrolidin-3-yl)acetamide] | 100 | ≤ 1000
2 | CCN(CC)CCN(C)C(=O)c1sc2c(c1OC)c(=O)n(Cc1ccccn1)c1ccccc21 [Example 3, N-[2-(diethylamino)ethyl]-3-methoxy-N-methyl-4-oxo-5-(pyridin-2-ylmethyl)-4,5-dihydrothieno[3,2-c]quinoline-2-carboxamide ditrifluoroacetate] | 100 | ≤ 1000
3 | COc1c(C(=O)NCCN2CCCCC2)sc2c1c(=O)n(CC(=O)c1ccccc1)c1ccccc21 [Example 9, 3-methoxy-4-oxo-5-(2-oxo-2-phenylethyl)-N-(2-piperidin-1-ylethyl)-4,5-dihydrothieno[3,2-c]quinoline-2-carboxamide trifluoroacetate] | 100 | ≤ 1000
4 | CCN(CC)CCCC(C)NC(=O)c1sc2c(c1OC)c(=O)n(CC(=O)c1ccccc1)c1ccccc21 (stereo not shown) [Example 13, N-[4-(diethylamino)-1-methylbutyl]-3-methoxy-4-oxo-5-(2-oxo-2-phenylethyl)-4,5-dihydrothieno[3,2-c]quinoline-2-carboxamide trifluoroacetate] | 100 | ≤ 1000
5 | COc1c(C(=O)N(C)C2CCN(C)C2)sc2c1c(=O)n(CC(=O)c1ccccc1)c1ccccc21 (stereo not shown) [Example 16, 3-methoxy-N-methyl-N-(1-methylpyrrolidin-3-yl)-4-oxo-5-(2-oxo-2-phenylethyl)-4,5-dihydrothieno[3,2-c]quinoline-2-carboxamide trifluoroacetate] | 100 | ≤ 1000
6 | COc1c(C(=O)N2CCCN(C)CC2)sc2c1c(=O)n(CC(=O)c1ccccc1)c1ccccc21 [Example 17, 3-methoxy-2-[(4-methyl-1,4-diazepan-1-yl)carbonyl]-5-(2-oxo-2-phenylethyl)thieno[3,2-c]quinolin-4(5H)-one trifluoroacetate] | 99 | ≤ 1000
7 | COc1c(C(=O)N(CCC#N)Cc2cccnc2)sc2c1c(=O)n(CC(=O)c1ccccc1)c1ccccc21 [Example 22, N-(2-cyanoethyl)-3-methoxy-4-oxo-5-(2-oxo-2-phenylethyl)-N-(pyridin-3-ylmethyl)-4,5-dihydrothieno[3,2-c]quinoline-2-carboxamide trifluoroacetate] | 91 | ≤ 1000
8 | COc1c(C(=O)N(C)CC(=O)N2CCCC2)sc2c1c(=O)n(CC(=O)c1ccccc1)c1ccccc21 [Example 27, 3-methoxy-N-methyl-4-oxo-5-(2-oxo-2-phenylethyl)-N-(2-oxo-2-pyrrolidin-1-ylethyl)-4,5-dihydrothieno[3,2-c]quinoline-2-carboxamide] | 100 | ≤ 1000
9 | COc1c(C(=O)NCCO)sc2c1c(=O)n(CC(=O)c1ccccc1)c1ccccc21 [Example 32, N-(2-hydroxyethyl)-3-methoxy-4-oxo-5-(2-oxo-2-phenylethyl)-4,5-dihydrothieno[3,2-c]quinoline-2-carboxamide] | 95 | ≤ 1000
10 | CCN(CC)CCN(C)C(=O)c1sc2c(c1OC)c(=O)n(CC1CC1)c1ccccc21 [Example 41, 5-(cyclopropylmethyl)-N-[2-(diethylamino)ethyl]-3-methoxy-N-methyl-4-oxo-4,5-dihydrothieno[3,2-c]quinoline-2-carboxamide] | 100 | ≤ 1000
11 | CCOc1c(C(=O)NCCN2CCCC2)sc2c1c(=O)n(CC(=O)c1ccccc1)c1ccccc21 [Example 43, 3-ethoxy-4-oxo-5-(2-oxo-2-phenylethyl)-N-(2-pyrrolidin-1-ylethyl)-4,5-dihydrothieno[3,2-c]quinoline-2-carboxamide] | 100 | ≤ 1000
12 | CCOc1c(C(=O)N(C)CCN(CC)CC)sc2c1c(=O)n(CC(=O)c1ccccc1)c1ccccc21 [Example 45, N-[2-(diethylamino)ethyl]-3-ethoxy-N-methyl-4-oxo-5-(2-oxo-2-phenylethyl)-4,5-dihydrothieno[3,2-c]quinoline-2-carboxamide hydrochloride] | 100 | ≤ 1000
13 | CCN(CC)CCN(C)C(=O)c1sc2c(c1OC)c(=O)n(Cc1ccc(OC)cc1)c1ccccc21 [Example 48, N-[2-(diethylamino)ethyl]-3-methoxy-5-(4-methoxybenzyl)-N-methyl-4-oxo-4,5-dihydrothieno[3,2-c] quinoline-2-carboxamide hydrochloride] | 10 | ≤ 1000
14 | CCN(CC)CCN(C)C(=O)c1sc2c(c1OC)c(=O)n(CC(=O)C(C)(C)C)c1ccccc21 [Example 50, N-[2-(diethylamino)ethyl]-5-(3,3-dimethyl-2-oxobutyl)-3-methoxy-N-methyl-4-oxo-4,5-dihydrothieno[3,2-c]quinoline-2-carboxamide] | 100 | ≤ 1000
15 | CCN(CC)CCN(C)C(=O)c1sc2c(c1OC)c(=O)n(CCOc1ccccc1)c1ccccc21 [Example 51, N-[2-(diethylamino)ethyl]-3-methoxy-N-methyl-4-oxo-5-(2-phenoxyethyl)-4,5-dihydrothieno[3,2-c]quinoline-2-carboxamide] | 100 | ≤ 1000
16 | CCN(CC)CCN(C)C(=O)c1sc2c(c1OC)c(=O)n(CC(=O)Nc1ccccc1)c1ccccc21 [Example 52, N-[2-(diethylamino)ethyl]-3-methoxy-N-methyl-4-oxo-5-[2-oxo-2-(phenylamino)ethyl]-4,5-dihydrothieno[3,2-c]quinoline-2-carboxamide hydrochloride] | 95 | ≤ 1000
17 | CCOC(=O)Cn1c(=O)c2c(OC)c(C(=O)N(C)CCN(CC)CC)sc2c2ccccc21 [Example 53, ethyl [2-{[2-(diethylamino)ethyl](methyl)carbamoyl}-3-methoxy-4-oxothieno[3,2-c]quinolin-5(4H)-yl]acetate] | 95 | ≤ 1000
18 | CCN(CC)CCN(C)C(=O)c1c(OC)c2c(=O)n(CC(=O)c3ccccc3)c3ccccc3c2n1C [Example 56, N-[2-(diethylamino)ethyl]-3-methoxy-N,1-dimethyl-4-oxo-5-(2-oxo-2-phenylethyl)-4,5-dihydro-1H-pyrrolo[3,2-c]quinoline-2-carboxamide hydrochloride] | 100 | ≤ 1000
19 | COc1c(C(=O)NCCN2CCC(O)CC2)n(C)c2c1c(=O)n(CC(=O)c1ccccc1)c1ccccc21 [Example 69, N-[2-(4-hydroxypiperidin-1-yl)ethyl]-3-methoxy-1-methyl-4-oxo-5-(2-oxo-2-phenylethyl)-4,5-dihydro-1H-pyrrolo[3,2-c]quinoline-2-carboxamide] | 100 | ≤ 1000
20 | COc1c(C(=O)NCCN2CCOCC2)n(C)c2c1c(=O)n(CC(=O)c1ccccc1)c1ccccc21 [Example 71, 3-methoxy-1-methyl-N-(2-morpholin-4-ylethyl)-4-oxo-5-(2-oxo-2-phenylethyl)-4,5-dihydro-1H-pyrrolo[3,2-c]quinoline-2-carboxamide] | 100 | ≤ 1000
